Assay results: patent publication US10975056B2 (GlaxoSmithKline Intellectual Property Development Limited, priority 2016, dated 2021)
Values joined by “and” are separate entries in the source; they are usually repeats but may differ in a detail not shown here. Identical values can stand only once. Counter-ions that a name gives are not always drawn. Like-named read-outs stand apart in the source and are kept apart here.

Experiments:
[1] = test system: erythroid progenitor cells (EPCs); test: Fetal hemoglobin (HbF) ELISA in day 7 erythroid progenitor cells; assay type: cell-based, human; conditions: Homo sapiens, Erythroid progenitor cell, HbF ELISA, day 7 EPCs, 5 days; read-out: EPC ELISA (pEC50 category) (converted);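 further: for fetal hemoglobin induction normalized to vehicle-treated cells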
Summary of the method: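 HbF induction was read by anti-HbF sandwich ELISA (HRP/TMB, OD450) on lysates and normalized to vehicle-treated cells. Cells were day 7 erythroid progenitors derived from human bone marrow CD34+ cells, seeded at 1,000/well with 3 U/mL rhEPO. Compound was given for 5 days at 37 °C at final concentrations […].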

DNMT1 = DNMT1 (Homo sapiens, UniProt P26358); test: DNMT1 biochemical activity, breaklight assay and/or SPA assay
DNMT1, sequence (P26358 whole entry, looked up): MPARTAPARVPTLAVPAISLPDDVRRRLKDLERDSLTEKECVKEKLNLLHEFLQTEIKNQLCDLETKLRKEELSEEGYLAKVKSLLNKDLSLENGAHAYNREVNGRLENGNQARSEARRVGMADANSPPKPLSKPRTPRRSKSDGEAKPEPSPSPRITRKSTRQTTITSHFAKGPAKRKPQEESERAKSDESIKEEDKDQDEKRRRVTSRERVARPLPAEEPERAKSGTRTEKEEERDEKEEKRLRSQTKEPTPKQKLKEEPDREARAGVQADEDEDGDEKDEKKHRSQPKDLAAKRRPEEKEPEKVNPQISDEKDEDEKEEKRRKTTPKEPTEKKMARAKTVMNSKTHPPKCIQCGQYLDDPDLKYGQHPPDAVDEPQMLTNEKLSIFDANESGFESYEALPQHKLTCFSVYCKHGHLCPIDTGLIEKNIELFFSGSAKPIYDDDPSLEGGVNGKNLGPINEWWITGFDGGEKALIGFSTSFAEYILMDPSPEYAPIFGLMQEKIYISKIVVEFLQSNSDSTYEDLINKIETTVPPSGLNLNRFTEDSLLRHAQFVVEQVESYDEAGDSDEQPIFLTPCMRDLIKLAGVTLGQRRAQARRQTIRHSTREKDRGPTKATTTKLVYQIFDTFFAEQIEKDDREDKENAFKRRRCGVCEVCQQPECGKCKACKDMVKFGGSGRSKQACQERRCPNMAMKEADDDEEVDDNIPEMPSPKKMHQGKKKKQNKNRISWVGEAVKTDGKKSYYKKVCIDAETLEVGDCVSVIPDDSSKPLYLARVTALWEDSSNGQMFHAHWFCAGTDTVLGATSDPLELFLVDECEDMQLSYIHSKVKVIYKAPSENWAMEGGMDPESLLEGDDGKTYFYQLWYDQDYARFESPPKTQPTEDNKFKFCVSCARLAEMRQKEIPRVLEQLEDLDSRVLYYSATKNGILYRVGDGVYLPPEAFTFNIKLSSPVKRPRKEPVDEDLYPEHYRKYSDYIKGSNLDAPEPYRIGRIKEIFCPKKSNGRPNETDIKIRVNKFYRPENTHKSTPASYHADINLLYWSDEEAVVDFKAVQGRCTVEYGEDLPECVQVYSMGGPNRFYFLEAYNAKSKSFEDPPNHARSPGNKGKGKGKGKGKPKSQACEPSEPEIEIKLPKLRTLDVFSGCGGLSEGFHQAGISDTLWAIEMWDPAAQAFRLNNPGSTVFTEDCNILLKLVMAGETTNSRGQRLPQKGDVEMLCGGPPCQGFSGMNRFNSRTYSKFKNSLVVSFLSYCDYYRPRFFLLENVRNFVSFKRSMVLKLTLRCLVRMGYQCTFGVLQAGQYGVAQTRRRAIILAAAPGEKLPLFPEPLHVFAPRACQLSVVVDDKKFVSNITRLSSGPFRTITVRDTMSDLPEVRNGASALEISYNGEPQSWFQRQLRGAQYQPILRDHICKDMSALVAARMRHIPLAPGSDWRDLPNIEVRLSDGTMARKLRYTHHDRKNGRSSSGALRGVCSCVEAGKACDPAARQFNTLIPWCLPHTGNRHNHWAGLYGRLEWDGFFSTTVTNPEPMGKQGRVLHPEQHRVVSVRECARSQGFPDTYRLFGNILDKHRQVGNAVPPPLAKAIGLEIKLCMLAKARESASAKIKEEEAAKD

[2] = binned activity in either the breaklight or the SPA assay
[3] = binned activity in either the breaklight or the SPA assay, read-out: DNMT1 BioChemical (pIC50 category) (converted)
[4] = breaklight assay and/or SPA assay, repeated experimental runs, read-out: average pIC50 against DNMT1 (converted)

| SMILES | EC50 [1] [µM] | DNMT1 BioChemical (pIC50 category) (DNMT1; [2]) | IC50 (DNMT1; [3]) [µM] | IC50 (DNMT1; [4]) |
| --- | --- | --- | --- | --- |
| CC(C)(N)C(=O)NC1CCN(c2nc(SC(C(N)=O)c3ccccc3)c(C#N)c(C3CC3)c2C#N)CC1 (centres unmarked) [Example 374, 2-Amino-N-(1-(6-((2-amino-2-oxo-1-phenylethyl)thio)-3,5-dicyano-4-cyclopropylpyridin-2-yl)piperidin-4-yl)-2-methylpropanamide] | 0.316 to 1 | D (Category D: ≥6.5) |  |  |
| CCc1c(C#N)c(SC(C(N)=O)c2ccc(C(N)=O)cc2)nc(N(C)C)c1C#N (centres unmarked) [Example 375, 4-(2-Amino-1-((3,5-dicyano-6-(dimethylamino)-4-ethylpyridin-2-yl)thio)-2-oxoethyl)benzamide] | 1 to 31.6 | D (Category D: ≥6.5) |  |  |
| CCc1c(C)c(N2CCC(N)CC2)nc(SC(C(N)=O)c2ccccc2)c1C#N (centres unmarked) [Example 376, 2-(6-(4-Aminopiperidin-1-yl)-3-cyano-4-ethyl-5-methylpyridin-2-ylthio)-2-phenylacetamide] | 0.316 to 1 |  | 0.316 to 1 |  |
| CCc1c(C#N)c(SCc2ccc(OCCN(C)C)cc2)nc(N2CCCN(C)CC2)c1C#N [Example 377, 2-(4-(2-(Dimethylamino)ethoxy)benzylthio)-4-ethyl-6-(4-methyl-1,4-diazepan-1-yl)pyridine-3,5-dicarbonitrile] | > 31.6 |  | 1 to 31.6 | ≥ 1 µM |
| CCc1c(C#N)c(SC(C(N)=O)c2ccc(S(=O)(=O)NC)cc2)nc(N2CCCN(C)CC2)c1C#N (centres unmarked) [Example 378] | 1 to 31.6 |  | 0.316 to 1 |  |
| CCc1c(C#N)c(SCc2ccc(S(C)(=O)=O)cc2)nc(N2CCCN(C)CC2)c1C#N [Example 379, 4-Ethyl-2-(4-methyl-1,4-diazepan-1-yl)-6-((4-(methylsulfonyl)benzyl)thio)pyridine-3,5-dicarbonitrile] | 0.316 to 1 |  | 0.316 to 1 | 0.316 to 1 µM and 0.794 µM |
| CCc1c(C#N)c(SCc2cnn(CC(O)CO)c2)nc(N2CCC(N)CC2)c1C#N (centres unmarked) [Example 380, 2-(4-Aminopiperidin-1-yl)-6-(((1-(2,3-dihydroxypropyl)-1H-pyrazol-4-yl)methyl)thio)-4-ethylpyridine-3,5-dicarbonitrile, Hydrochloride] | 1 to 31.6 |  | 0.316 to 1 |  |

Second part, the compound after the results:

| EC50 [1] [µM] | DNMT1 BioChemical (pIC50 category) (DNMT1; [2]) | IC50 (DNMT1; [3]) [µM] | IC50 (DNMT1; [4]) | SMILES |
| --- | --- | --- | --- | --- |
| 1 to 31.6 |  | 0.316 to 1 |  | CCc1c(C#N)c(SC(C(N)=O)c2ccccc2)nc(N2CCNCC(F)C2)c1C#N (centres unmarked) [Example 381, 2-((3,5-Dicyano-4-ethyl-6-(16-fluoro-1,4-diazepan-1-yl)pyridin-2-yl)thio)-2-phenylacetamide] |
| < 0.316 | D (Category D: ≥6.5) |  |  | CCc1c(C#N)c(SC(C(N)=O)c2ccccc2)nc(N2CCC(N)C(F)(F)C2)c1C#N (centres unmarked) [Example 382, 2-((6-(4-Amino-3,3-difluoropiperidin-1-yl)-3,5-dicyano-4-ethylpyridin-2-yl)thio)-2-phenylacetamide] |
| 0.316 to 1 | D (Category D: ≥6.5) |  |  | CCc1c(C#N)c(SC(C(N)=O)c2ccccc2)nc(N2CCC(NC(=O)OC(C)(C)C)C(F)(F)C2)c1C#N (centres unmarked) [Example 383, tert-Butyl (1-(6-((2-amino-2-oxo-1-phenylethyl)thio)-3,5-dicyano-4-ethylpyridin-2-yl)-3,3-difluoropiperidin-4-yl) carbamate] |
| > 31.6 |  | 0.316 to 1 |  | CCc1c(C#N)c(SCc2ccc(N3CCN(C)CC3)cc2)nc(N2CCCN(C)CC2)c1C#N [Example 384, 4-Ethyl-2-(4-methyl-1,4-diazepan-1-yl)-6-((4-(4-methylpiperazin-1-yl)benzyl)thio)pyridine-3,5-dicarbonitrile] |
| > 31.6 |  | 0.316 to 1 |  | CCc1c(C#N)c(SCc2ccc(CNC3CCNC3=O)cc2)nc(N2CCCN(C)CC2)c1C#N (centres unmarked) [Example 385, 4-Ethyl-2-(4-methyl-1,4-diazepan-1-yl)-6-((4-(((2-oxopyrrolidin-3-yl)amino)methyl)benzyl)thio)pyridine-3,5-dicarbonitrile] |
